US12281178B2, “Tuning of pore-forming peptides for increasing pore size, membrane affinity, stability, and antimicrobial activity” (ADOLPHE MERKLE INSTITUTE, UNIVERSITY OF FRIBOURG, priority 2018, dated 2025)
“Also recorded” adds a separate entry of the source.

Legend:
[1] = Planar lipid bilayer single channel recordings of CtxA and flexible-template CtxA-DNA assemblies; format: biochemical
Description: The lipid composition for the bilayers consisted of POPC, DOPE and POPS with a 7:3:1 (w/w) ratio (PC/PE/PS) or for the origami structures in diphytanoyl phosphatidylcholine (DiPhyPC). We dissolved the resulting lipid mixture in pentane (total lipid concentration: 10 mg/mL). The buffered electrolyte solution consisted of 1M NaCl, 10 mM HEPES, pH 7.4 or 3M CsCl, 10 mM HEPES, pH 7.4 in 30% glycerol.
We designed Teflon chambers with one big compartment (containing a maximum volume of 1.5 mL) and one small compartment (containing a maximum volume of 200 μL). We pretreated Teflon films (Eastern Scientific LLC, Rockville, MD) with apertures of 50 μm by pipetting 1 μL of pre-treatment solution—hexadecane in hexane 2.5% (v/v)—onto both sides of the aperture of the Teflon film. We then mounted the Teflon film in a Teflon chamber using high-vacuum grease (Dow Corning Corporation), separating the two compartments of the Teflon chamber. The only connection between the compartments was the aperture in the Teflon film over which we formed virtually solvent-free planar lipid bilayers using the technique described by Montal and Mueller^10. Briefly, we added electrolyte solution to both compartments (1.2 mL in the bigger compartment and 160 μL for the smaller one) and spread 1-2 μL of lipid solution onto the surface of the buffered electrolyte solution. After the solvent evaporated, a lipid monolayer (Langmuir film) formed at the air-water interface. […] We then thinned the membrane by lowering and raising the electrolyte solution in one compartment, until we measured a capacitance of 60±10 pF. To monitor capacitance, we applied a triangular voltage and the capacitance was either calculated by the amplifier or determined visually using the manual capacitance compensation of the amplifier. Prior to adding the peptide, we checked the stability of the bilayer (absence of leak currents, expected noise level) by applying transmembrane voltages of up to 200 mV for 5 min at both polarities. We used one of two different amplifiers, an EPC7 (HEKA Instruments Inc., Holliston, MA, USA) or a BC-535 (Warner Instruments Hamden, CT, USA)) and connected both compartments to the amplifier through two Ag/AgCl pellet electrodes (Warner Instruments Hamden, CT, USA). We placed the Teflon chambers inside Faraday cages, on BM4 vibration isolation platforms (Minus K® Technology, Inc., Inglewood, CA, USA). We carried out all experiments at room temperature (22±1° C.) and tested all setups with different model cells to confirm proper functionality of the amplifiers and function generators. We sampled currents at 50 kHz and low-pass 10 kHz. We analysed data using OriginLab (OriginLab Corporation, Northampton, MA, USA) and pClamp (Molecular Devices, Sunnyvale, CA, USA) software.
We performed the experiments with the peptide-DNA hybrid in two different ways: (i) we added all components sequentially—ssDNA-CtxA first, then the template strands, one after the other—or (ii) we mixed the ssDNA-CtxA with the spacer strand (with or without cholesterol) and the template strand in a DNA LoBind tube (Eppendorf Tubes, Hamburg, Germany) and let them react overnight at room temperature (pre-incubation experiments). We also performed the pre-incubation experiments with and without HPLC-SEC purification. In the case of unpurified assemblies, we added the DNA-modified peptides and the spacer strand stoichiometrically and then added the n-mer template (with n equal to 4, 6 or 8) at a ratio of 1 mole for n moles of DNA-modified peptide. When purifying the assemblies, we added the peptide-DNA monomers in excess compared to the template strand (at least 5 n moles of peptide for 1 mol of n-mer template) and removed the excess monomers using HPLC-SEC purification (Agilent SEC 3 column, 300 mm, […], 4.6 mm internal diameter). We then stored the collected assemblies at +4° C. for later use and add the spacer strand in excess prior to the experiment. […]

A549 cells = assay: Cytotoxic activity: change in confluence of A549 cells over time (IncuCyte); format: cell-based
Description: We grew lung epithelial A549 cells in RPMI 1640 medium containing 25 mM HEPES, 1% L-glutamine, 10% fetal bovine serum and added 1% penicillin-streptomycin for prevention of bacterial contamination of cell cultures. We seeded the cells in 96-well plates (TPP, Trasadingen, Switzerland) with 10′000 cells per well, in a total volume of 50 uL per well. We placed the plates in the IncuCyte Zoom imaging system (Essen Bioscience, Ann Arbor, MI, USA) placed inside of an incubator set to 37° C. and 5% CO2 and monitored the growth of the cell by monitoring the change in confluence over time. We seeded the cells and left them to adhere and replicate for 20 h before adding the templated CtxA-DNA assemblies or native CtxA as control. We then measured the cell confluence every 2 h. To estimate the effect of the different peptide assemblies on the change in confluence over time, we fitted the observed confluence levels after peptide addition linearly.

[2] = applied potential difference of +180 mV

Q: What does the source list for “Ceratotoxin A (SIGSALKKALPVAKKIGKIALPIAKAALPVAAGLVG) [Native CtxA]”?
A: Minimum concentration to display significant / frequent pore formation [1]: 10 to 20 nM; Pore lifetime [1]: hundreds of milliseconds; also recorded: less than one second; Conductance, open state O1 (3-mer) [1, 2]: 50 ± 25 pS; Conductance, open state O2 (4-mer) [1, 2]: 510 ± 30 pS; Conductance, open state O3 (5-mer) [1, 2]: 1645 ± 200 pS; Conductance, open state O4 (6-mer) [1, 2]: 3125 ± 305 pS; Conductance, open state O5 (7-mer) [1, 2]: 4630 ± — pS; Conductance, open state O6 (8-mer) [1, 2]: 6600 ± — pS; Pore-forming activity ([1]; total peptide concentration of 5 nM, +180 mV): little to no pore formation; Concentration necessary to reduce cell viability (A549 cells): 50 to 100 µM; Total CtxA concentration sufficient to completely stop replication of the cells (A549 cells): 100 µM
